Assays:
rat NR1/NR2B receptor = rat NR1/NR2B receptor (Rattus norvegicus (Rat), UniProt P35439+Q00960); assay: RRNR2BB: inhibition of specific binding to the rat NR1/NR2B receptor; details: [3H]-Ifenprodil binding, rat brain membranes, Hill-plot 2-parameter-model
Description: RRNR2BB—Inhibition of Specific Binding to the Rat NR1/NR2B Receptor
Male Wistar rats (180 to 200 g) were killed by suffocation in a CO2 chamber for two minutes. Whole brains without cerebellum were removed and dissected on ice, placed into closed vials and stored at −70° C.
Membrane fractions were prepared and tested using standard techniques. At the time of the assay, 1 g of the brains were placed into 25 ml of 50 mM Tris/10 mM EDTA buffer, pH=7.1, (25 vol. per g of original tissue) and was homogenized for 30 sec at 20000 U/min with an Ultraturrax T25 (Jahnke & Kunkel, IKA-Labortechnik, Staufen, Germany). The homogenate was centrifuged at 4° C. for 10 min at 48000 g (OPTIMA L-70, Beckman, Palo Alto, Calif. 94304, USA). The supernatant was discarded and the pellet was homogenized on ice for 30 sec at 20000 U/min with an Ultraturrax and again centrifuged at 48000 g for 30 minutes at 4° C. The resultant pellet was resuspended in 25 ml of 50 mM Tris/10 mM EDTA buffer, homogenized for 30 sec with an Ultraturrax, aliquoted, frozen at −70° C. and stored until use
After thawing on the day of the assay, a 5 ml membrane aliquote was centrifuged at 48000 g for 30 min at 4° C. The pellet was resuspended in 5 ml of 5 mM Tris/1 mM EDTA buffer, pH=7.4, homogenized for 30 sec at 20000 U/min with an Ultraturrax and centrifuged at 48000 g for 30 min at 4° C. This step was repeated twice. The final pellet was homogenized in 5 ml of 5 mM Tris/mM EDTA buffer at 4° C. with an Ultraturrax and used for the Ifenprodil-binding assay.
Nonspecific binding was estimated in the presence of 10 M CP101.606. The samples were incubated for 60 min. at 4° C.
(§1) Binding was terminated by filtration of the incubated membrane preparations using Filtermat B (Pharmacia, Uppsala Sweden) and a Micro Cell Harvester (Skatron, Lier, Norway). The Filtermat B had been presoaked with 1% polyethylenimine and carefully washed with 50 nM Tris/HCl-buffer pH=7.7 after the filtration to separate free and bound radioactivity.
For pipetting of the incubation mixture the robot Biomek2000 (Fa. Beckman) was used.
The IC50 values in the tables below were determined using the Hill-plot, 2-parameter-model.

hERG-receptor = hERG-receptor (Homo sapiens (Human), UniProt Q12809); assay: HERGBD: inhibition of specific 3H-Dofetilide binding to the hERG-receptor; details: HEK cell membranes with human ERG, Hill-plot 2-parameter-model
Sequence of hERG-receptor (Q12809 whole entry): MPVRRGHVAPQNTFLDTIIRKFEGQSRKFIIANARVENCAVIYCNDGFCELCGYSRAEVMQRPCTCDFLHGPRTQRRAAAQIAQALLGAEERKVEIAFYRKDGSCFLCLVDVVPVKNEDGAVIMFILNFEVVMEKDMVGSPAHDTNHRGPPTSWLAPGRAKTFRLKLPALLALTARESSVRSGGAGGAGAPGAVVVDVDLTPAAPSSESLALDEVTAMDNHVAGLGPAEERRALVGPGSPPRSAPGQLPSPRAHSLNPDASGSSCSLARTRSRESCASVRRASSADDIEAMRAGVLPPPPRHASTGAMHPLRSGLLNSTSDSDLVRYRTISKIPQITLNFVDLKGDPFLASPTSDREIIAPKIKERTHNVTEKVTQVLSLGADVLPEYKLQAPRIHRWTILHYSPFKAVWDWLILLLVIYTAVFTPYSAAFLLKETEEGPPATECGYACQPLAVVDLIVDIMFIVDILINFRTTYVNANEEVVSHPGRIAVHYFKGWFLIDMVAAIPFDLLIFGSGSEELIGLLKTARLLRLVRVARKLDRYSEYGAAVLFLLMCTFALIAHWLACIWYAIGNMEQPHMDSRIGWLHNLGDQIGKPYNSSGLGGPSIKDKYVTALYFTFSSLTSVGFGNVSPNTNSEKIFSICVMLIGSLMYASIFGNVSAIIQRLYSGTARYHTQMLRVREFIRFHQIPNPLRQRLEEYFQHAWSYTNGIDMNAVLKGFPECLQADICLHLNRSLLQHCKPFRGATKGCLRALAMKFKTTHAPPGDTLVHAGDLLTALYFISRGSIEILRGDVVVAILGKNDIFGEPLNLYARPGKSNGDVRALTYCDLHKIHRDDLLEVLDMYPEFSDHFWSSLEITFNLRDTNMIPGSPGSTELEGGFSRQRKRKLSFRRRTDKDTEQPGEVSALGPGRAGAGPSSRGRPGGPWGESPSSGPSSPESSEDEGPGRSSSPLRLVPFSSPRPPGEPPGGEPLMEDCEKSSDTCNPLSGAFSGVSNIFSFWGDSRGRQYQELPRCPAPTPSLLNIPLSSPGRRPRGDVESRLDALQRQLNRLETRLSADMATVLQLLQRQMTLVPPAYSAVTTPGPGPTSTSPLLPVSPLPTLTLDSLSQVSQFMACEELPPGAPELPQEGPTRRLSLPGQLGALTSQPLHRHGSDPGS
Description: Inhibition of Specific Binding to the hERG-Receptor (HERGBD)
A HEK cell line with stable transfected human ERG receptor was used for the assay. The cells were grown adherently and maintained in DULBECCOS' MEM medium with 10% FBS, 1% non-essential amino acids, 1% Penicillin/Streptomycin and 400 μg/ml G418 (Calbiochem).
For binding assays and membrane preparations the cell culture medium was removed, cells were washed with PBS. Crude membranes for radioligand binding experiments were prepared by scraping the cells off the dishes in ice cold 20 mM HEPES/0.1 mM KCl/pH 7.2. The cell suspension was homogenized on ice (Ultra turrax, 3×20 sec.) and the homogenate was spun for 10 min (1° C., 1000 g, OPTIMA, SW28, 2800 U/min). The supernatant was than centrifuged for 40 min at 100000 g (1° C., OPTIMA, SW28, 23000 U/min). The membrane pellet was resuspended in 20 mM HEPES/0.1 mM KCl/pH 7.2, frozen and stored at −80° C.
After thawing on the day of the assay, the membrane suspension was diluted further with 20 mM HEPES/0.1 mM KCl/pH 7.2.
The incubation mixture of 200 μl contained 1.5 nmol/l 3H-Dofetilide, optimized amount of membrane preparation, 20 mM HEPES/0.1 mM KCl/(pH 7.2) and inhibitor in 1% DMSO. Nonspecific binding was estimated in the presence of […] Dofetilide. The samples were incubated for 90 min. at RT.
as §1, with “0.05 M” for “50 nM”, “radioactivity. The filters were counted in a scintillation counter (Betaplate 1205, Berthold, Wildbad, Germany) in order to determine the specific binding of [^3H]-Dofetilide.” for “radioactivity.”
The optimal amount of membrane preparation in the assay was determined and optimized for each membrane preparation separately in front of using the membranes in compound testing.
For pipetting of the incubation mixture we routinely use the robot Biomek2000 (Fa. Beckman).

Sequence of rat NR1/NR2B receptor (Q00960 27-1482, other chains not shown): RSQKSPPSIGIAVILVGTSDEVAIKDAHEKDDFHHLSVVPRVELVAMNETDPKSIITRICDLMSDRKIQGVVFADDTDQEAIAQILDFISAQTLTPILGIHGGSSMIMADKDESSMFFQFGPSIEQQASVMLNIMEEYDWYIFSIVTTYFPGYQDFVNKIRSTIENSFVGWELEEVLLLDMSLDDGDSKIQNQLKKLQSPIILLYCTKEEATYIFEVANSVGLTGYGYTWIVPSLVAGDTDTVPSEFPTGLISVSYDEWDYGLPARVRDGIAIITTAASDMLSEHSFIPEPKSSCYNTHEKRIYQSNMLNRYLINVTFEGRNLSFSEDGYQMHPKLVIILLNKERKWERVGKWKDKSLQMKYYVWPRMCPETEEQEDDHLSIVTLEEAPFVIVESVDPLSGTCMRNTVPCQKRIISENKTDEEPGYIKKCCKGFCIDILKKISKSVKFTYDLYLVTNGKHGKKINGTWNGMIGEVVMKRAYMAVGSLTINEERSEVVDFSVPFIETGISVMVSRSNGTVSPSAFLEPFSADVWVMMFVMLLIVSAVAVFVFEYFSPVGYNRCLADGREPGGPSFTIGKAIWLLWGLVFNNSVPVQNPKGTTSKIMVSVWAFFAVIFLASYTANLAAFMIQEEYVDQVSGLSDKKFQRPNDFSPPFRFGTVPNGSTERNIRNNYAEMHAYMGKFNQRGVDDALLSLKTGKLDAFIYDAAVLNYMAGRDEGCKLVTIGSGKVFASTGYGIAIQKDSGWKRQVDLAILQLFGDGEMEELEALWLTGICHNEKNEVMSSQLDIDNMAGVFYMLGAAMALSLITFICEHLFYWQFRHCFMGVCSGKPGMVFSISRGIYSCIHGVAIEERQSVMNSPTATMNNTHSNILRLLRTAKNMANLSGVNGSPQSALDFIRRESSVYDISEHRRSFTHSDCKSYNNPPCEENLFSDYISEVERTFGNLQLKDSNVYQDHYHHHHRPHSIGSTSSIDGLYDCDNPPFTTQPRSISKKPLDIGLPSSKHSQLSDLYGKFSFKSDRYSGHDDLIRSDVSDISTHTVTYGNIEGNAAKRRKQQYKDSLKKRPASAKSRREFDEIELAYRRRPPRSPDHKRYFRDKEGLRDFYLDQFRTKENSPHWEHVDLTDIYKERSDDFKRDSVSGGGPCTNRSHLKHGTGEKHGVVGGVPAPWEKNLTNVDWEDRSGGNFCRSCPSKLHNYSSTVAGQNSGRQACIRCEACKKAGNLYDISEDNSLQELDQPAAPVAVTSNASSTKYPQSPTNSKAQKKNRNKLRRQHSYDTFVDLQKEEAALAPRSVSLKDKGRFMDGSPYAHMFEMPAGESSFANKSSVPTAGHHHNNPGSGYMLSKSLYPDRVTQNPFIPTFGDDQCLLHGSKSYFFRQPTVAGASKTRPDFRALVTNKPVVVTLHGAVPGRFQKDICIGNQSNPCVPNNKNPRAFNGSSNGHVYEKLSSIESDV

Structure (SMILES) | IC50 (rat NR1/NR2B receptor) | IC50 (hERG-receptor)
Cc1nc(C)n(Cc2cn(-c3ccc(Cl)cc3)nn2)n1 [Example 1, 1-(4-Chloro-phenyl)-4-(3,5-dimethyl-[1,2,4]triazol-1-ylmethyl)-1H-[1,2,3]triazole] | > 10 µM | 419 µM
CCCc1ncnn1Cc1cn(-c2ccc(Cl)cc2)nn1 [Example 2, 1-(4-Chloro-phenyl)-4-(5-propyl-[1,2,4]triazol-1-ylmethyl)-1H-[1,2,3]triazole] | > 1 µM | 0.032 µM
CCCc1ncn(Cc2cn(-c3ccc(Cl)cc3)nn2)n1 [Example 3, 1-(4-Chloro-phenyl)-4-(3-propyl-[1,2,4]triazol-1-ylmethyl)-1H-[1,2,3]triazole] | > 10 µM | 0.305 µM
CC(C)c1ncn(Cc2cn(-c3ccc(Cl)cc3)nn2)n1 [Example 4, 1-(4-Chloro-phenyl)-4-(3-isopropyl-[1,2,4]triazol-1-ylmethyl)-1H-[1,2,3]triazole] | > 10 µM | –
CCc1ncnn1Cc1cn(-c2ccc(Cl)cc2)nn1 [Example 5, 1-(4-Chloro-phenyl)-4-(5-ethyl-[1,2,4]triazol-1-ylmethyl)-1H-[1,2,3]triazole] | > 10 µM | 194 µM
CCc1ncn(Cc2cn(-c3ccc(Cl)cc3)nn2)n1 [Example 6, 1-(4-Chloro-phenyl)-4-(3-ethyl-[1,2,4]triazol-1-ylmethyl)-1H-[1,2,3]triazole] | > 10 µM | 54.9 µM
CC(C)c1ncnn1Cc1cn(-c2ccc(Cl)cc2)nn1 [Example 7, 1-(4-Chloro-phenyl)-4-(5-isopropyl-[1,2,4]triazol-1-ylmethyl)-1H-[1,2,3]triazole] | > 10 µM | > 100 µM
Cc1ncn(Cc2cn(-c3ccc(Cl)cc3)nn2)n1 [Example 9, 1-(4-Chloro-phenyl)-4-(3-methyl-[1,2,4]triazol-1-ylmethyl)-1H-[1,2,3]triazole] | > 10 µM | 46.9 µM
Clc1ccc(-n2cc(Cn3nc(C4CC4)nc3C3CC3)nn2)cc1 [Example 10, 1-(4-Chloro-phenyl)-4-(3,5-dicyclopropyl-[1,2,4]triazol-1-ylmethyl)-1-[1,2,3]triazole] | > 10 µM | 0.0039 µM
Clc1ccc(-n2cc(Cn3ncnc3C3CCC3)nn2)cc1 [Example 11, 1-(4-Chloro-phenyl)-4-(5-cyclobutyl-[1,2,4]triazol-1-ylmethyl)-1H-[1,2,3]triazole] | > 1 µM | > 100 µM
Clc1ccc(-n2cc(Cn3cnc(C4CCC4)n3)nn2)cc1 [Example 12, 1-(4-Chloro-phenyl)-4-(3-cyclobutyl-[1,2,4]triazol-1-ylmethyl)-1H-[1,2,3]triazole] | > 10 µM | 11.8 µM
Clc1ccc(-n2cc(Cn3cnc(C4CC4)n3)nn2)cc1 [Example 13, 1-(4-Chloro-phenyl)-4-(3-cyclopropyl-[1,2,4]triazol-1-ylmethyl)-1H-[1,2,3]triazole] | > 10 µM | 45.1 µM
Clc1ccc(-n2cc(Cn3cnc(C4CCCC4)n3)nn2)cc1 [Example 15, 1-(4-Chloro-phenyl)-4-(3-cyclopentyl-[1,2,4]triazol-1-ylmethyl)-1H-[1,2,3]triazole] | > 10 µM | 87.9 µM
Clc1ccc(-n2cc(Cn3ncnc3C3CC3)nn2)cc1 [Example 16, 1-(4-Chloro-phenyl)-4-(5-cyclopropyl-[1,2,4]triazol-1-ylmethyl)-1H-[1,2,3]triazole] | > 10 µM | > 100 µM
FC(F)(F)c1ncn(Cc2cn(-c3ccc(Cl)cc3)nn2)n1 [Example 17, 1-(4-Chloro-phenyl)-4-(3-trifluoromethyl-[1,2,4]triazol-1-ylmethyl)-1H-[1,2,3]triazole] | > 10 µM | 25.6 µM
CC(C)(C)c1ncnn1Cc1cn(-c2ccc(Cl)cc2)nn1 [Example 19, 4-(5-tert-Butyl-[1,2,4]triazol-1-ylmethyl)-1-(4-chloro-phenyl)-1H-[1,2,3]triazole] | > 10 µM | 33.8 µM
CC(C)(C)c1ncn(Cc2cn(-c3ccc(Cl)cc3)nn2)n1 [Example 20, 4-(3-tert-Butyl-[1,2,4]triazol-1-ylmethyl)-1-(4-chloro-phenyl)-1H-[1,2,3]triazole] | > 10 µM | 35.6 µM
Cc1nc(C2CCC2)nn1Cc1cn(-c2ccc(Cl)cc2)nn1 [Example 22, 1-(4-Chloro-phenyl)-4-(3-cyclobutyl-5-methyl-[1,2,4]triazol-1-ylmethyl)-1H-[1,2,3]triazole] | > 10 µM | –
Clc1ccc(-n2cc(Cn3ccnc3Cl)nn2)cc1 [Example 26, 4-(2-Chloro-imidazol-1-ylmethyl)-1-(4-chloro-phenyl)-1H-[1,2,3]triazole] | – | 12.1 µM
CC(C)(C)c1nccn1Cc1cn(-c2ccc(Cl)cc2)nn1 [Example 30, 4-(2-tert-Butyl-imidazol-1-ylmethyl)-1-(4-chloro-phenyl)-1H-[1,2,3]triazole] | – | 3.58 µM
CCCc1nccn1Cc1cn(-c2ccc(F)c(Cl)c2)nn1 [Example 43, 1-(3-Chloro-4-fluoro-phenyl)-4-(2-propyl-imidazol-1-ylmethyl)-1H-[1,2,3]triazole] | – | 2.72 µM
Cc1nc(CO)n(Cc2cn(-c3ccccc3)nn2)n1 [Example 47, 4-(5-Hydroxymethyl-3-methyl-[1,2,4]triazol-1-ylmethyl)-1-phenyl-1H-[1,2,3]triazole] | > 10 µM | –
Cc1nc(CO)nn1Cc1cn(-c2ccccc2)nn1 [Example 48, 4-(3-Hydroxymethyl-5-methyl-[1,2,4]triazol-1-ylmethyl)-1-phenyl-1H-[1,2,3]triazole] | > 10 µM | –
Fc1cc(-n2cc(Cn3ccnc3C3CC3)nn2)ccc1Cl [Example 61, 1-(4-Chloro-3-fluoro-phenyl)-4-(2-cyclopropyl-imidazol-1-ylmethyl)-1H-[1,2,3]triazole] | – | 3.62 µM
Cc1cc(-n2cc(Cn3ccnc3C3CC3)nn2)ccc1Cl [Example 65, 1-(4-Chloro-3-methyl-phenyl)-4-(2-cyclopropyl-imidazol-1-ylmethyl)-1H-[1,2,3]triazole] | – | 3.87 µM
CC(C)c1nccn1Cc1cn(-c2cccc(OC(F)(F)F)c2)nn1 [Example 73, 4-(2-Isopropyl-imidazol-1-ylmethyl)-1-(3-trifluoromethoxy-phenyl)-1H-[1,2,3]triazole] | – | 13 µM
CS(=O)(=O)c1cccc(-n2cc(Cn3ccnc3CCO)nn2)c1 [Example 79, 4-[2-(2-Hydroxy-ethyl)-imidazol-1-ylmethyl]-1-(3-methanesulfonyl-phenyl)-1H-[1,2,3]triazole] | – | > 100 µM
CCCCc1nccn1Cc1cn(-c2ccc(F)c(C(F)F)c2)nn1 [Example 86, 1-(3-Difluoromethyl-4-fluoro-phenyl)-4-(2-butyl-imidazol-1-ylmethyl)-1H-[1,2,3]triazole] | – | 3.24 µM
OCCc1nccn1Cc1cn(-c2ccc(Cl)c(OC(F)F)c2)nn1 [Example 98, 1-(4-Chloro-3-difluoromethoxy-phenyl)-4-[2-(2-hydroxy-ethyl)-imidazol-1-ylmethyl]-1H-[1,2,3]triazole] | – | 17.1 µM
